Measured values reported in patent publication EP0222702A2, “Basic carbonyl derivatives” (CIBA-GEIGY AG, priority 1985, dated 1987).

Legend:
[1] = molecular target: T1, Serotonin-(5HT2)-Rezeptoren (Rattus norvegicus, UniProt P14842); test: Displacement of 3H-ketanserin binding from rat brain membranes; set-up: species or system Ratten; details: read-out: Verdrängung der Bindung von 3H-Ketanserin, Konzentration (ICso)
T1 construct: from tissue; host or cells: rat brain membranes
Excerpt: (§1) Ferner lässt sich die Bindung der neuen Verbindungen oder deren Salze an Dihydropyridin-Rezeptoren mittels Verdrängung der Bindung von ^3H-Nitrendipin an Membranen von Meerschweichenherzen in in-vitro-Versuchen [Erne, P. et al,: Biochem. Biophys. Res. Commm., 118, 842-847 (1984)] z.B. unter Verwendung von 2,6-Dimethyl-4-(3-nitrophenyl)-1,4-dihydropyridin-3-carbonsäuremethylester-5-carbonsäure-[2-[4-(p-fluorobenzoyl)-piperidin-1-yl]-1-phenyl] -äthyl ester (Diastereomerengemisch) bei einer Konzentration (IC50) von etwa 0,2 nMol/Liter nachweisen. Ebenso kann die Bindung der erfindungsgemässen Verbindungen an ai-Rezeptoren durch Verdrängung von ^3H-Prazosin aus seinen Bindungsstellen an der Ratten-Cerebralcortex-Membran gemäss der Methodik von P. Greenengass et al., Eur. J. Pharmacol. 55, 323, (1979), bei etwa 300 nMol/Liter in vitro signifikant nachgewiesen werden. Ausserdem lässt sich die Bindung der neuen Verbindungen oder deren Salze an Serotonin-(5HT2)-Rezeptoren mittels Verdrängung der Bindung von ^3H-Ketanserin an Membranen des Rattenhirns [Leysen, J.E. et al.: Molecul. Pharmacol. 21, 301-304, (1982)] z.B. unter Verwendung von 2,6-Dimethyl-4-(3-nitrophenyl)-1,4-dihydropyridin-3-carbonsäuremethylester-5-carbonsäure-[2-[4-(p-fluorbenzoyl)-piperidin-1-yl]-1-phenyl]-äthylester (Diastereomerengemisch) bei einer Konzentration (ICso) von etwa 6,0 nMol/Liter zeigen.

[2] = molecular target: T2, Dihydropyridin-Rezeptoren (Cavia porcellus, UniProt O35505); test: Displacement of 3H-nitrendipine binding from guinea pig heart membranes; set-up: species or system Meerschweichen; details: membranes of guinea pig hearts, in vitro; read-out: Verdrängung der Bindung von 3H-Nitrendipin, Konzentration (IC50)
T2 construct: from tissue; host or cells: guinea pig heart membranes
Excerpt: as §1

[3] = system: Noradrenalin-induzierten Vasokonstriktion, isoliert perfundierten Mesenterialgefässen der Ratte; test: Inhibition of noradrenaline-induced vasoconstriction in isolated perfused rat mesenteric vessels; details: in vitro, read-out: Hemmung der Noradrenalin-induzierten Vasokonstriktion (ICso)
Excerpt: Die Verbindungen der Formel 1 und deren Salze besitzen wertvolle pharmakologische Eigenschaften, vor allem im cardiovasculären Bereich. Sie wirken als Calcium-Antagonisten und besitzen a-Rezeptoren blockierende sowie Serotonin-antagonistische Eigenschaften, wie sich z.B. in in-vitro-Versuchen an isoliert perfundierten Mesenterialgefässen der Ratte [McGregor, D.: J.Physiol. 177, 21-30, (1965)] als Hemmung der Kalium-,Noradrenalin-und Serotonin-induzierten Vasokonstriktion, beispielsweise unter Verwendung von 2,6-Dimethyl-4-(3-nitrophenyl)-1,4-dihydropyridin-3-carbonsäurmethylester-5-carbonsäure-[2-[4-(p-fluorben- zoyl)-piperidin-1-yl] -1-phenyl]-äthylester (Diastereomerengemisch) bei einer Konzentration von ca. 5 nMol/Liter (IC50) für die Hemmung der Kalium-induzierten Vasokonstriktion, von ca. 4 nMol/Liter (ICso) für die Hemmung der Noradrenalin-induzierten Vasokonstriktion und von ca. 80 nMol/Liter für die Hemmung der Serotonin-induzierten Vasokonstriktion zeigen lässt.

[4] = system: renal hypertensiven Ratte; test: Blood pressure lowering in the renal hypertensive rat; type: in vivo; details: 2 hours after p.o. application of ca. 2,0 mg/kg
Protocol: Die neuen Verbindungen oder deren Salze bewirken ferner eine Hemmung der durch Angiotensin 11, durch elektrische Stimulation oder durch Phenylephrin oder Noradrenalin induzierten pressorischen Effekte an der "pithed rat" [J.S. Gillespie: Br.J.Pharmacoi. 30, 78 (1967)] bei einer Dosis von etwa 2 mg/kg, und eine Hemmung der durch Serotonin induzierten pressorischen Effekte bei einer Dosis von etwa 6 mg/kg. Die neuen Verbindungen oder deren Salze wirken ausserdem antihypertensiv, was sich z.B. durch Senkung des Blutdrucks an der renal hypertensiven Ratte [Goldblatt et al.: J.exp.med. 59, 347 (1934)] zeigen lässt. So kann z.B. 2 Stunden nach p.o-Applikation von ca. 2,0 mg/kg 2,6-Dimethyl-4-(3-nitrophenyl)-1,4-dihydropyridin-3-carbonsäuremethylester-5-carbonsäure-[2-[4-(p-fluorbenzoyl)-piperidin-1-yl]-1-phenyl]-äthylester (Diastereomerengemisch) an der renal hypertensiven Ratte eine Blutdrucksenkung von ca. -70 mm Hg beobachtet werden.

T1 sequence (P14842 whole entry): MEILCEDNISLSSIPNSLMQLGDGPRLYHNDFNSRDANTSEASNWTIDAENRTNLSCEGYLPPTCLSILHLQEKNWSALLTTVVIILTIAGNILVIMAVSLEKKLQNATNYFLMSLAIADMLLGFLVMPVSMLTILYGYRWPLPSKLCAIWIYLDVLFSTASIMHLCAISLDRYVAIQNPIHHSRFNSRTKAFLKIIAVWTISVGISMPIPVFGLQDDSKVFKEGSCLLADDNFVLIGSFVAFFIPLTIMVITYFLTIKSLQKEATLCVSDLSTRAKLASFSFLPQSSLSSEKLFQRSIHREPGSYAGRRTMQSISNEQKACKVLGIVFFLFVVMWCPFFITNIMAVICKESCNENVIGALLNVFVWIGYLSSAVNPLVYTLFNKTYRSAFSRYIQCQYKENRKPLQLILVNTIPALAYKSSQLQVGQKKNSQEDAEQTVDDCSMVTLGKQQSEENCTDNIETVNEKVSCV
T2 sequence (O35505 whole entry): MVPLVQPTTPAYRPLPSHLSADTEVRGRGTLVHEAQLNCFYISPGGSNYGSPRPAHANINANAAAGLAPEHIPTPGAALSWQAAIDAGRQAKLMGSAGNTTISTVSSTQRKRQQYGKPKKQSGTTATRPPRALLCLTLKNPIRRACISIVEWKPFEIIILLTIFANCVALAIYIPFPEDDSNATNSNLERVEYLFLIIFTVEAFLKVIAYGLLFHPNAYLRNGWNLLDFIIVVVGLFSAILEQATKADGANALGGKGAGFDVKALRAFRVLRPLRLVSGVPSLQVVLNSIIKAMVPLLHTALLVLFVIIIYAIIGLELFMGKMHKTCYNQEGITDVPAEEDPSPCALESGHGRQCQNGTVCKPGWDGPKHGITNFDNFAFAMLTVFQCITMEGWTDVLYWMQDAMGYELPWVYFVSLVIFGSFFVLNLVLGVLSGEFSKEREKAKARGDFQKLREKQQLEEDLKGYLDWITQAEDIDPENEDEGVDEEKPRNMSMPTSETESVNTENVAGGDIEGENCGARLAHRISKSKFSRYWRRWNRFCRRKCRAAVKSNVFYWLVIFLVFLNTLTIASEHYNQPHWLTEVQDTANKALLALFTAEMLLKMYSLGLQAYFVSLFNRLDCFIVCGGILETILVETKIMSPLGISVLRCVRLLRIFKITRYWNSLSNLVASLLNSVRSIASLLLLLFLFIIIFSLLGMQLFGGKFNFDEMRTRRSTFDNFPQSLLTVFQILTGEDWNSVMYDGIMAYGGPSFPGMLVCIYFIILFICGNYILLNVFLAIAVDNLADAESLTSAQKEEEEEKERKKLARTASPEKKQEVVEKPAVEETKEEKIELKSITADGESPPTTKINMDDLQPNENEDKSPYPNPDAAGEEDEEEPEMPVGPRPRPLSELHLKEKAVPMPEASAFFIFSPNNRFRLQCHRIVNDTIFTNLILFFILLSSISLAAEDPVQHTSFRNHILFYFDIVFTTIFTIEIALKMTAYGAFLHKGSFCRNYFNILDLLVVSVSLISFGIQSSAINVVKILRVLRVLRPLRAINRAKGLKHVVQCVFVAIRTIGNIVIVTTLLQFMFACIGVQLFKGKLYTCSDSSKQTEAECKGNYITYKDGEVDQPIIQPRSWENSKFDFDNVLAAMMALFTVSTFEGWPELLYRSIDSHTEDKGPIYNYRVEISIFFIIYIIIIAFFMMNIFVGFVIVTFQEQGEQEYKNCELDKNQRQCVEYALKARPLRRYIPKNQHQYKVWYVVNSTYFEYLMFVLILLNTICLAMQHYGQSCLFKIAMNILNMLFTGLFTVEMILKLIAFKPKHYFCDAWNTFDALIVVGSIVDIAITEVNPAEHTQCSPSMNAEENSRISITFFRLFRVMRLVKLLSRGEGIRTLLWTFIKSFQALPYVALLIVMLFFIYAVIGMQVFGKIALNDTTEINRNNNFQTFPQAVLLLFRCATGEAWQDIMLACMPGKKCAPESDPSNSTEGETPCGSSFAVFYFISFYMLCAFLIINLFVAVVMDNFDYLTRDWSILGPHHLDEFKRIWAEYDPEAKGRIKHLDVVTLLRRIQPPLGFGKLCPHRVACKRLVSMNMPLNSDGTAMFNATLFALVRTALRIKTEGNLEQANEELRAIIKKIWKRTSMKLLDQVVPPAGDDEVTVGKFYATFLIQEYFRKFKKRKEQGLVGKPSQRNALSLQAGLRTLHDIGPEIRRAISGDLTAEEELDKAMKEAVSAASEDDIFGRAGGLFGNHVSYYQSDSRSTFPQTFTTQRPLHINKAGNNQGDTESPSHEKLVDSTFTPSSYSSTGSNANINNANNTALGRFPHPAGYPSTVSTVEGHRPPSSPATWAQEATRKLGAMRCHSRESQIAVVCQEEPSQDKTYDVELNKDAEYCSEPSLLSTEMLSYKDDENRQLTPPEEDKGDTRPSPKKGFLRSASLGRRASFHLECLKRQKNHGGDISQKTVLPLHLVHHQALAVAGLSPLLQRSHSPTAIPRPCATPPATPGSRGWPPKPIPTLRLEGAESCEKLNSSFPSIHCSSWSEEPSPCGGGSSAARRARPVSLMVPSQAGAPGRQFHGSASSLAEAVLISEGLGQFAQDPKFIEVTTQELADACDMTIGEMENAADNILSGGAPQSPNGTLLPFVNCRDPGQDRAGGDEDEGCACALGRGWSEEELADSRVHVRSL

COC(=O)C1=C(C)NC(C)=C(C(=O)OC(CN2CCC(C(=O)c3ccc(F)cc3)CC2)c2ccccc2)C1c1cccc([N+](=O)[O-])c1 (stereo not shown) [Beispiel 1, 2,6-Dimethyl-4-(3-nitrophenyl)-1,4-dihydropyridin-3-carbonsäuremethylester-5-carbonsäure-[2-[4-(p-fluorbenzoyl)-piperidin-1-yl]-1-phenyl]-äthylester]
IC50 [1]: ~6 nM
IC50 [2]: ~0.2 nM
IC50 [3]: ~4 nM
Blutdrucksenkung [4]: ca. -70 mm Hg
